Results: ChEMBL document CHEMBL1201862, “PubChem BioAssay data set” (2004)
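Growth conditions: 96-well plates. Treatment: test compound, 48 hours, 5 concentrations. Analysis: linear interpolation between bracketing concentrations; unreached endpoints set to highest concentration. The concentration for 50% growth inhibition is given as GI50.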 Active and inactive are the calls of the source. No stated cut-off is given here; in the data, active = GI50 up to about 1.1 µM and inactive = higher.

Legend:
Experiment in all cases: NCI tumour cell line growth inhibition, 48 h
[1] = system: CCRF-CEM
[2] = system: CAKI-1
[3] = system: ACHN
[4] = system: SN12C
[5] = system: EKVX
[6] = system: UACC-257
[7] = system: NCI-H522
[8] = system: OVCAR-4
[9] = system: SNB-75
[10] = system: IGROV-1
[11] = system: KM12
[12] = system: TK-10
[13] = system: OVCAR-8
[14] = system: HOP-92
[15] = system: OVCAR-3
[16] = system: SK-MEL-2
[17] = system: SK-MEL-28
[18] = system: OVCAR-5
[19] = system: SNB-78
[20] = system: KM-20L2

Measured: GI50

COc1ccc(-c2cc(-c3cc(OC)c(OC)c(OC)c3)cc(-c3cc4ccccc4oc3=O)n2)cc1
inactive: [1] > 100 µM | [2] 4.86 µM | [3] 4.13 µM | [4] 8.93 µM | [5] 10.9 µM | [6] 16.7 µM | [7] 6.85 µM | [8] 3.94 µM | [9] 2.51 µM | [10] 7.06 µM | [11] 12.6 µM | [12] 8.18 µM | [13] 4.38 µM | [14] 4.07 µM | [15] 17 µM | [16] 20 µM

CCOC(=O)CC(=O)CSc1c(-c2ccccc2)c(=O)n(-c2ccccc2)c(=S)n1-c1ccccc1
inactive: [1] 51.4 µM | [2] > 100 µM | [3] > 100 µM | [4] > 100 µM | [5] > 100 µM | [6] > 100 µM | [7] 69.7 µM | [8] > 100 µM | [9] > 100 µM | [10] 19.8 µM | [17] > 100 µM | [11] > 100 µM | [12] > 100 µM | [18] > 100 µM | [13] > 100 µM | [14] > 100 µM | [15] > 100 µM

O=C(CC(C(=O)c1cccs1)c1ccc2c(c1)OCO2)c1ccc(Br)cc1 (stereo not given)
inactive: [1] > 100 µM | [2] > 100 µM | [3] > 100 µM | [4] > 100 µM | [5] > 100 µM | [6] > 100 µM | [8] > 100 µM | [9] > 100 µM | [10] > 100 µM | [17] > 100 µM | [11] > 100 µM | [12] > 100 µM | [13] > 100 µM

CC(=O)O[C@]12CCCCCC1C1(O)C(O)CCCC[C@H]12 (stereo not given in full)
inactive: [1] > 100 µM | [3] > 100 µM | [4] > 100 µM | [5] > 100 µM | [6] > 100 µM | [7] > 100 µM | [8] > 100 µM | [9] 14.7 µM | [17] > 100 µM | [11] > 100 µM | [12] > 100 µM | [19] > 100 µM | [13] > 100 µM | [20] > 100 µM | [16] > 100 µM

Cc1ccc(-c2cc(-c3ccco3)c(C#N)c(=O)n2C2OC(CO)C(O)C(O)C2O)cc1 (stereo not given)
inactive: [1] 66.2 µM | [3] 42.9 µM | [4] 46.3 µM | [5] > 100 µM | [6] 58.5 µM | [7] 44.5 µM | [8] 35.7 µM | [10] 49.1 µM | [17] 37 µM | [11] 84.5 µM | [12] 45.3 µM | [18] > 100 µM | [19] 65.5 µM | [13] 32.2 µM | [20] > 100 µM | [15] 45.6 µM

N#CC1(C#N)C(=O)c2ccncc2C1=O
inactive: [1] > 100 µM | [2] > 100 µM | [3] > 100 µM | [4] > 100 µM | [5] > 100 µM | [6] > 100 µM | [7] > 100 µM | [8] > 100 µM | [9] > 100 µM | [10] > 100 µM | [17] > 100 µM | [11] > 100 µM | [18] > 100 µM | [13] > 100 µM | [14] > 100 µM | [15] > 100 µM | [16] > 100 µM

O=C1NC2=C(CCCC/C2=N\O)C12CCCCC2
inactive: [3] > 100 µM | [4] > 100 µM | [5] > 100 µM | [6] > 100 µM | [8] > 100 µM | [9] > 100 µM | [10] > 100 µM | [17] > 100 µM | [11] > 100 µM | [12] > 100 µM | [18] > 100 µM | [19] > 100 µM | [20] > 100 µM | [15] > 100 µM

O=S(=O)(O)c1ccc(/N=N\c2ccc(/N=N/c3ccc(/C=C/c4ccc(/N=[N+](\[O-])c5ccc(/C=C/c6ccc(/N=N/c7ccc(/N=N/c8ccc(S(=O)(=O)O)cc8)c8ccccc78)cc6S(=O)(=O)O)c(S(=O)(=O)O)c5)cc4S(=O)(=O)O)c(S(=O)(=O)O)c3)c3ccccc23)cc1
inactive: [1] > 100 µM | [4] > 100 µM | [5] > 100 µM | [6] > 100 µM | [7] 54.5 µM | [8] > 100 µM | [9] 50.7 µM | [10] 32.3 µM | [17] > 100 µM | [11] > 100 µM | [18] > 100 µM | [19] > 100 µM | [13] > 100 µM | [14] > 81.1 µM | [20] > 100 µM | [15] 99.1 µM | [16] > 100 µM
